Test system: rumen liquor
Assay: In vitro test for methane production, modified Hohenheim Forage value Test (HFT)
Type: cell-based
Settings: TMR feed, 8 hours at 39° C., average of four to eight experiments
Protocol: In vitro test for methane production: A modified version of the “Hohenheim Forage value Test (HFT)” was used for testing the effect of specific compounds on the rumen functions mimicked by this in-vitro system.
Principle: Feed is gadded into a syringe with a composition of rumen liquor and an appropriate mixture of buffers. The solution is incubated at 39° C. After 8 hours the quantity (and composition) of gas phase produced is measured and put into a formula for conversion.
Sample weighing: The feed stuff (i.e. TMR (44% concentrate, 6% hay, 37% maize silage and 13% grass silage) is sieved to 1 mm and weighed exactly into 64 syringes. 4 of these syringes are the substrate controls, which display the gas production without the effect of the tested compounds. 4 other syringes are positive control (3-NOP, […]). When needed, 4 syringes contain a carrier control (if the test compounds need a carrier). The remaining syringes contain the test substances, by groups of 4 syringes, in the amounts as indicated in table 1.
• The components are mixed in a Woulff bottle in following order: • 711 ml water • 0.18 ml trace element solution • 355.5 ml buffer solution • 355.5 ml mass element solution • The completed solution is warmed up to 39° C. followed by the addition of 1.83 ml sodium salt solution and the addition of reduction solution at 36° C. • The rumen liquor is added, when the indicator turns colourless.
Extraction of the rumen liquor: 750 ml of rumen liquor are added to approximately 1,400 ml of medium solution under continued agitation and CO2-gassing.
Filling the syringes, incubation and determining gas volumes and VFA values: The diluted rumen fluid (24 ml) is added to the glass syringe. The syringes are then incubated for 8 hours at 39° C. under gentle agitation. After 8 hours, the volume of gas produced is measured, and the percentage of methane in the gas phase is determined by gas chromatography.
The food fermented was artificial TMR (44% concentrate, 6% hay, 37% maize silage and 13% grass silage). […]

In the case of `O=[N+]([O-])OCCCO` [PDMN, Propanediol mononitrate], the “Total methane change [% vs. control], found” value (PDMN 5 μM) is reported as −27 % vs. control and the “Total methane change [% vs. control], found” value (PDMN 10 μM) is reported as −98 % vs. control.
In the case of `C=C(C)C1CC=C(C)CC1` [DL, D-Limonene], the “Total methane change [% vs. control], found” value (DL 100 μM) is reported as −1 % vs. control.

Source: patent US20240207200A1, “USE OF PROPANDIOL MONONITRATE AND LIMONENE FOR REDUCING THE FORMATION OF METHANE EMANATING AND FOR IMPROVING THE DIGESTIBILITY” (DSM IP Assets B.V., priority 2021, published 2024)
